According to patent US20250041179A1, “ANTIMICROBIAL COMBINATIONS” (SYMRISE AG, priority 2021, published 2025):

Tests used:
Conditions in all cases: substance alone 0.5% w/w
S. aureus = experiment: Preservative efficacy test (Ph. Eur., adjusted inoculum) in O/W anionic emulsion; type: cell-based, Staphylococcus aureus
Method: (§1) Material was tested in predesigned standardised cosmetic formulations either as oil-in-water anionic emulsion (Table 2), shampoo (Table 3), or wet wipe solution (Table 4). The antimicrobial actives were dissolved or mixed with the standardised cosmetic formulations, leading to the indicated test concentrations (in w/w %, cf. […] To determine synergistic indices, raw values for bacterial of fungal colony counts were used. [table] […] Steinberg D. C. (2000): Measuring Synergy. In Cosmetics & Toiletries, 115) was used: […]

E. coli = experiment: as above; type: cell-based, Escherichia coli
Method: as §1

C. albicans = experiment: Preservative efficacy test (Ph. Eur., adjusted inoculum) in shampoo formulation; type: cell-based, Candida albicans
Method: (§2) Preservative efficacy tests were performed according to the European Pharmacopoeia with adjusted inoculation numbers (10^6-10^7 cells of suitable bacteria or fungi). Material was tested in predesigned standardised cosmetic formulations either as oil-in-water anionic emulsion (Table 2), shampoo (Table 3), or wet wipe solution (Table 4). The antimicrobial actives were dissolved or mixed with the standardised cosmetic formulations, leading to the indicated test concentrations (in w/w %, cf. Tables 5 to 12 below). To determine synergistic indices, raw values for bacterial of fungal colony counts were used.
(§3) [formula] • where • SI is the synergism index according to Kull • CA is the cell count for substance A (also “count A”) • CB is the cell count for substance B (also “count B”) • Cmixture is the cell count for the mixture of substance A and B (also “count mix”) • PA is the proportion of the substance A in the mixture in relation to the concentration tested alone • PB is the proportion of the substance B in the mixture in relation to the concentration tested alone

P. aeruginosa = experiment: as above; type: cell-based, Pseudomonas aeruginosa
Method: as §2, §3

A. brasiliensis = experiment: as above; type: cell-based, Aspergillus brasiliensis
Method: as §2, §3

In the case of `Cc1cc(CC(C)CC(C)(C)C)n(O)c(=O)c1.NCCO` (stereo not drawn) [Piroctone olamine, piroctone olamine, reference compound], the “Absolute cell counts 2 days” value (S. aureus; 2 days) is reported as 2.50E+06, the “Relative cell counts 2 days” value (S. aureus; 2 days) is reported as 0.7813 and the “Absolute cell counts 7 days” value (S. aureus; 7 days) is reported as 3.80E+04. For the same molecule, the “Relative cell counts 7 days” value (S. aureus; 7 days) was 0.0119, the “Absolute cell counts 14 days” value (S. aureus; 14 days) was 1 and the “Relative cell counts 14 days” value (S. aureus; 14 days) was 0.0000. The “Absolute cell counts 28 days” value (S. aureus; 28 days) was 1, the “Relative cell counts 28 days” value (S. aureus; 28 days) was 0.0000 and the “Absolute cell counts 2 days” value (E. coli; 2 days) was 1. For the same molecule, the “Relative cell counts 2 days” value (E. coli; 2 days) was 0.0000, the “Absolute cell counts 7 days” value (E. coli; 7 days) was 1 and the “Relative cell counts 7 days” value (E. coli; 7 days) was 0.0000. The “Absolute cell counts 14 days” value (E. coli; 14 days) was 1, the “Relative cell counts 14 days” value (E. coli; 14 days) was 0.0000 and the “Absolute cell counts 28 days” value (E. coli; 28 days) was 1. The “Relative cell counts 28 days” value (E. coli; 28 days) was 0.0000, the “Absolute cell counts 2 days” value (C. albicans; 2 days) was 1 and the “Relative cell counts 2 days” value (C. albicans; 2 days) was 0.0000. For the same molecule, the “Absolute cell counts 7 days” value (C. albicans; 7 days) was 1, the “Relative cell counts 7 days” value (C. albicans; 7 days) was 0.0000 and the “Absolute cell counts 14 days” value (C. albicans; 14 days) was 1. For the same molecule, the “Relative cell counts 14 days” value (C. albicans; 14 days) was 0.0000, the “Absolute cell counts 28 days” value (C. albicans; 28 days) was 1 and the “Relative cell counts 28 days” value (C. albicans; 28 days) was 0.0000. For the same molecule, the “Absolute cell counts 2 days” value (P. aeruginosa; 2 days) was 1, the “Relative cell counts 2 days” value (P. aeruginosa; 2 days) was 0.0000 and the “Absolute cell counts 7 days” value (P. aeruginosa; 7 days) was 1. For the same molecule, the “Relative cell counts 7 days” value (P. aeruginosa; 7 days) was 0.0000, the “Absolute cell counts 14 days” value (P. aeruginosa; 14 days) was 1 and the “Relative cell counts 14 days” value (P. aeruginosa; 14 days) was 0.0000. The “Absolute cell counts 28 days” value (P. aeruginosa; 28 days) was 1 and the “Relative cell counts 28 days” value (P. aeruginosa; 28 days) was 0.0000.
With `CC(C)(C)C(=O)C(Oc1ccc(Cl)cc1)n1ccnc1` (stereo not drawn) [Climbazole, climbazole, reference compound] the “Absolute cell counts 2 days” value (A. brasiliensis) was 1.50E+05, the “Relative cell counts 2 days” value (A. brasiliensis) was 0.0366 and the “Absolute cell counts 7 days” value (A. brasiliensis) was 6.20E+04. The “Relative cell counts 7 days” value (A. brasiliensis) was 0.0151, the “Absolute cell counts 14 days” value (A. brasiliensis) was 5.90E+04 and the “Relative cell counts 14 days” value (A. brasiliensis) was 0.0144. The “Absolute cell counts 28 days” value (A. brasiliensis) was 4.60E+04 and the “Relative cell counts 28 days” value (A. brasiliensis) was 0.0112.
In the case of `C/C=C/C=C/C(=O)[O-].[K+]` [Potassium Sorbate, potassium sorbate], the “Absolute cell counts 2 days” value (A. brasiliensis) is reported as 1.40E+04, the “Relative cell counts 2 days” value (A. brasiliensis) is reported as 0.0034 and the “Absolute cell counts 7 days” value (A. brasiliensis) is reported as 1. The “Relative cell counts 7 days” value (A. brasiliensis) was 0.0000, the “Absolute cell counts 14 days” value (A. brasiliensis) was 1 and the “Relative cell counts 14 days” value (A. brasiliensis) was 0.0000. For the same molecule, the “Absolute cell counts 28 days” value (A. brasiliensis) was 1 and the “Relative cell counts 28 days” value (A. brasiliensis) was 0.0000.
